Data published in ChEMBL document CHEMBL6078710, “Design, synthesis and biological evaluation of new SIRT3 activators for the treatment of triple-negative breast cancer” (Bioorg Med Chem, 2025).

Experiments:
BT-549 = assay: Antiproliferative activity against human BT-549 cells assessed as inhibition of cell proliferation by MTT assay
MDA-MB-231 = assay: Antiproliferative activity against human MDA-MB-231 cells assessed as inhibition of cell proliferation by MTT assay
[1] = target: T1, NAD-dependent protein deacetylase sirtuin-3, mitochondrial (Homo sapiens, UniProt Q9NTG7); assay: Activation of SIRT3 (unknown origin)
T1 sequence (Q9NTG7 whole entry): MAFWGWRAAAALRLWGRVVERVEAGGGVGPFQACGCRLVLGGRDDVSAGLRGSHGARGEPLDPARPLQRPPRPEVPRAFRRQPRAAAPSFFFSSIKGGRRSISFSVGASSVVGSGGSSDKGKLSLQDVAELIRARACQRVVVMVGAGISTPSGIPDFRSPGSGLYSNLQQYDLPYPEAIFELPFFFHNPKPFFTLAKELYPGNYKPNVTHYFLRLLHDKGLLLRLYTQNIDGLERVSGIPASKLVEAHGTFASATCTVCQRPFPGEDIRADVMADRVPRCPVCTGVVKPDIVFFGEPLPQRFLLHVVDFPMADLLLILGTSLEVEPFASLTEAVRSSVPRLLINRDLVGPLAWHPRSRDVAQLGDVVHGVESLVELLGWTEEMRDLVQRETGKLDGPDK

SMILES	IC50 (BT-549)	IC50 (MDA-MB-231)	EC50 [1]
CCOC(=O)C1=CN(C(=O)c2cc(OC)c(OC)c(OC)c2)C=C(C(=O)OCC)C1c1ccccc1	4.79 µM	5.23 µM	
CC(C)C[C@@H]1NC(=O)CCN2C(=O)CC3(CC(C)(C)C(=O)N3S(=O)(=O)c3cccc(c3)C(=O)OCCOC(=O)[C@H](Cc3ccccc3)NC1=O)C2=O (some centres undefined)			29.4 µM
CCOC(=O)C1=CN(C(=O)c2ccc(OC)c(OC)c2)C=C(C(=O)OCC)C1c1ccc(S(C)(=O)=O)cc1	11.9 µM	15.2 µM	
CCOC(=O)C1=CN(C(=O)c2cc(OC)c(OC)c(OC)c2)C=C(C(=O)OCC)C1c1cnc(Cl)c(Cl)c1	2.77 µM	5.78 µM	
CCOC(=O)C1=CN(C(=O)c2cc(OC)c(OC)c(OC)c2)C=C(C(=O)OCC)C1c1ccc(S(C)(=O)=O)cc1	8.21 µM	14.2 µM	
